Test results published in patent publication US12459951B2, “Compounds that interact with RAS superfamily proteins for treatment of cancers, inflammatory diseases, rasopathies, and fibrotic disease” (SHY Therapeutics, LLC, priority 2022, dated 2025).
Like-named read-outs stand apart in the source and are kept apart here.

Key:
Akt phosphorylation = experiment: Akt Phosphorylation Assay (western blot), Panc-1; format: cell-based, human; conditions: at 10 μM, * = activation
Outline: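 Phospho-Akt (Ser473) was measured by western blot in lysates of KRas G12D Panc-1 cells exposed to test compound for 6 h at 37 °C, either at 10 μM final with 0.3% DMSO or as serial dilutions for IC50. One format used overnight 0.5% FBS starvation followed by a 15 min pulse of 1.5 ng/ml EGF. The other used cells in 10% FBS with no stimulation.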

IL6 = experiment: IL-6 Quantification Assay (ELISA), LPS-stimulated RAW 264.7; format: cell-based; parameters: inhibition: dose or concentration left out as unconfirmed; conditions: Mus musculus, RAW264.7, read-out: IL-6: % inh.
[1] = system: MiaPaca-2 (expressing KRAS G12C mutant); experiment: Proliferation Assay (Cell Viability Assay); format: cell-based; conditions: Homo sapiens, MIA PaCa-2
Outline: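 After 2–4 days' exposure at 37 °C, 5% CO2 to a single 10 μM final concentration or a dilution series (IC50), percent proliferation inhibition was derived from CellTiter 96 Aqueous One viability readings. The medium contained 0.3% DMSO and 10% FBS. KRAS G12C MiaPaca-2 cells were plated at 2000–5000/well the day before.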

TNF-alpha = TNF-alpha Quantification Assay (ELISA), LPS-stimulated RAW 264.7; format: cell-based; conditions: Mus musculus, RAW264.7; at 10 μM; read-out: TNFα: % inh.
[2] = read-out: Proliferation in MiaPaca-2: IC50

Row | SMILES | % inh of Akt phosphorylation in Panc-1 (Akt phosphorylation) | inhibition (IL6) | IC50 [1, 2] | inhibition at 10 µM (TNF-alpha) | inhibition at 10 µM (IL6; at 10 μM) | IC50 ([1]; MiaPaca2, pancreatic, KRas G12C, read-out: Proliferation assay IC50) | IC50 ([1]; Proliferation assay, MiaPaca-2, read-out: MiaPaca-2 IC50 (nM) Pancreatic)
1 | COc1cccc(-c2cn3nc(-c4nccn4C)nc(N[C@@H]4CC[C@@H](OC)C4)c3c2-c2ccccc2)c1F (racemic) [Compound 43, rac 6-(2-Fluoro-3-methoxyphenyl)-N-((1R,3R)-3-methoxycyclopentyl)-2-(1-methyl-1H-imidazol-2-yl)-5-phenylpyrrolo[2,1-f][1,2,4]triazin-4-amine] | B (26-49% inhibition) | 25 to 49% | > 1000 nM | 1 to 24% |  |  | 
2 | Cc1c(-c2ccn(C)n2)cn2nc(-c3nccn3C)nc(Nc3cc(C(F)(F)F)[nH]n3)c12 [Compound 259, 5-Methyl-2-(1-methyl-1H-imidazol-2-yl)-6-(1-methyl-1H-pyrazol-3-yl)-N-(5-(trifluoromethyl)-1H-pyrazol-3-yl)pyrrolo[2,1-f][1,2,4]triazin-4-amine] | D* (85-100% activation) | 50 to 74% | > 1000 nM | 0% |  |  | 
3 | COCC1CCN(c2nc(-c3ccccn3)nn3cc(-c4ccn(C(C)C)n4)c(-c4ccccc4)c23)C1 (racemic) [Compound 25, rac 6-(1-Isopropyl-1H-pyrazol-3-yl)-4-(3-(methoxymethyl)pyrrolidin-1-yl)-5-phenyl-2-(pyridin-2-yl)pyrrolo[2,1-f][1,2,4]triazine] | D (85-100% inhibition) | 1 to 24% | > 1000 nM | 1 to 24% |  |  | 
4 | COc1ccnc(Nc2nc(-c3nccn3C)nn3cc(-c4ccn(C)n4)c(C4CC4)c23)c1 [Compound 276, 5-Cyclopropyl-N-(4-methoxypyridin-2-yl)-2-(1-methyl-1H-imidazol-2-yl)-6-(1-methyl-1H-pyrazol-3-yl)pyrrolo[2,1-f][1,2,4]triazin-4-amine] | D* (85-100% activation) | 50 to 74% | 150 to 500 nM | 0% |  |  | 
5 | COc1ccc(F)c(-c2cn3nc(-c4nccn4C)nc(N[C@H]4C[C@H](OC)C4)c3c2-c2ccccc2)c1F [Compound 273, 6-(2,6-Difluoro-3-methoxyphenyl)-N-((1r,3r)-3-methoxycyclobutyl)-2-(1-methyl-1H-imidazol-2-yl)-5-phenylpyrrolo[2,1-f][1,2,4]triazin-4-amine] | D (85-100% inhibition) | 75 to 100% | > 1000 nM | 75 to 100% |  |  | 
6 | Cc1c(-c2ccn(C)n2)cn2nc(-c3nccn3C)nc(-n3[nH]c(N)cc3=O)c12 [Compound 261, 5-Amino-2-(5-methyl-2-(1-methyl-1H-imidazol-2-yl)-6-(1-methyl-1H-pyrazol-3-yl)pyrrolo[2,1-f][1,2,4]triazin-4-yl)-1,2-dihydro-3H-pyrazol-3-one] | B (26-49% inhibition) | 50 to 74% | > 1000 nM | 1 to 24% |  |  | 
7 | COc1ccc(Nc2nc(-c3nccn3C)nn3cc(-c4ccn(C(C)C)n4)c(C)c23)nn1 [Compound 74, 6-(1-Isopropyl-1H-pyrazol-3-yl)-N-(6-methoxypyridazin-3-yl)-5-methyl-2-(1-methyl-1H-imidazol-2-yl)pyrrolo[2,1-f][1,2,4]triazin-4-amine] | D* (85-100% activation) | 1 to 24% | 150 to 500 nM | 1 to 24% |  |  | 
8 | Cc1c(-c2ccn(C(C)C)n2)cn2nc(-c3nccn3C)nc(Nc3cc(C4CC4)no3)c12 [Compound 69, 3-Cyclopropyl-N-(6-(1-isopropyl-1H-pyrazol-3-yl)-5-methyl-2-(1-methyl-1H-imidazol-2-yl)pyrrolo[2,1-f][1,2,4]triazin-4-yl)isoxazol-5-amine] | D* (85-100% activation) | 50 to 74% | > 1000 nM | 1 to 24% |  |  | 
9 | COc1cccc(-c2cn3nc(-c4nccn4C)nc(N[C@@H]4CC[C@H](OC)C4)c3c2-c2ccccc2)c1Cl (racemic) [Compound 33, rac 6-(2-Chloro-3-methoxyphenyl)-N-((1R,3S)-3-methoxycyclopentyl)-2-(1-methyl-1H-imidazol-2-yl)-5-phenylpyrrolo[2,1-f][1,2,4]triazin-4-amine] | D (85-100% inhibition) |  | 510 to 1000 nM | 75 to 100% | 75 to 100% |  | 
10 | COc1cc(-c2cn3nc(-c4nccn4C)nc(Nc4cc(OC)ncn4)c3c2C)ccn1 [Compound 50, 6-(2-Methoxypyridin-4-yl)-N-(6-methoxypyrimidin-4-yl)-5-methyl-2-(1-methyl-1H-imidazol-2-yl)pyrrolo[2,1-f][1,2,4]triazin-4-amine] | D* (85-100% activation) | 1 to 24% | < 150 nM | 0% |  |  | 
11 | COc1ccnc(Nc2nc(-c3nccn3C)nn3cc(-c4ccn(C(C)C)n4)c(C)c23)c1 [Compound 58, 6-(1-Isopropyl-1H-pyrazol-3-yl)-N-(4-methoxypyridin-2-yl)-5-methyl-2-(1-methyl-1H-imidazol-2-yl)pyrrolo[2,1-f][1,2,4]triazin-4-amine] | A* (1-25% activation) | 25 to 49% | < 150 nM | 1 to 24% |  | < 150 nM | 1 to 10 nM
12 | Cc1c(-c2ccn(C)n2)cn2nc(-c3nccn3C)nc(Nc3cc(C(F)F)[nH]n3)c12 [Compound 258, N-(5-(Difluoromethyl)-1H-pyrazol-3-yl)-5-methyl-2-(1-methyl-1H-imidazol-2-yl)-6-(1-methyl-1H-pyrazol-3-yl)pyrrolo[2,1-f][1,2,4]triazin-4-amine] | A (1-25% inhibition) | 0% | > 1000 nM | 0% |  |  | 
13 | COc1cccc(-c2cn3nc(-c4nccn4C)nc(N[C@@H]4CC[C@H]4OC)c3c2-c2ccccc2)c1C (racemic) [Compound 272, rac 6-(3-Methoxy-2-methylphenyl)-N-((1R,2R)-2-methoxycyclobutyl)-2-(1-methyl-1H-imidazol-2-yl)-5-phenylpyrrolo[2,1-f][1,2,4]triazin-4-amine] | D (85-100% inhibition) | 75 to 100% | > 1000 nM | 75 to 100% |  |  | 
14 | COc1cccc(-c2cn3nc(-c4nccn4C)nc(N[C@@H]4CC[C@@H](OC)C4)c3c2-c2ccccn2)c1F (racemic) [Compound 46, rac 6-(2-Fluoro-3-methoxyphenyl)-N-((1R,3R)-3-methoxycyclopentyl)-2-(1-methyl-1H-imidazol-2-yl)-5-(pyridin-2-yl)pyrrolo[2,1-f][1,2,4]triazin-4-amine] | 0 (0% inhibition) | 75 to 100% | > 1000 nM | 75 to 100% |  |  | 
15 | COc1cccc(-c2cn3nc(-c4nccn4C)nc(N[C@H]4C[C@H](OC)C4)c3c2-c2ccccc2)c1Cl [Compound 32, 6-(2-Chloro-3-methoxyphenyl)-N-((1r,3r)-3-methoxycyclobutyl)-2-(1-methyl-1H-imidazol-2-yl)-5-phenylpyrrolo[2,1-f][1,2,4]triazin-4-amine] | D (85-100% inhibition) | 75 to 100% | 150 to 500 nM | 75 to 100% |  |  | 
